Numbering of substitutions follows the chain as printed. Numbers in names are those of the source.
B1: PhZ (Phanerodontia chrysosporium; L124M) (protein)
chain: MPIALTHRINAFVADSPVGRWFHLEGSGHPKERVGSRFLTELRAGLTTWAAMAYIISVNASIISDTGGTCVCTQPDLCVNDETYLSCVADVRRDLITSTAAVSALASFLMGLLANLPVGMAPGMGLNAYFTYSVVGFHGSGIITYREALAAVFLEGWFFFFLSLLGLRQWLARIMPQSLVMAVGAGIGLFIAFIGLSGGGLGVIGGDTTNLVGLGGCLPQYYTSPDLPNYCASHVLQSPTMWLGIFVGGVFTVFLMLYRVKGAILIGIFLTSIISWPRPTSVTYFPHTDTGDQAFDFFKQVVTFRPLKRIGNALDYNYSNGRVWYALITFLYVDILDTTGTLYSMAKFAGLRDPVTLDFENSTIAYCVDAFSISMGALMGTSPVTAFIESATGISEGGKTGLTAITTGFAFFISVFFAPIFASIPSWATGGALVIVGSLMIRNVRDINWDYVGDSVPAFLTLIIIPLTYNIAYGVIAGIISFVLINGLAWALRKVSGERFAPPNYDASEPWVIPPGSIVPAWMRFIAGRTGLARDAARERPADADVLEMEQHAHDAASASSLGKHVPAVAEPVTEKDD
notes: full length, 578 amino acids, from cDNA; C-terminal GFP fusion kept; expressed at the azgA locus of Aspergillus nidulans deltaZAC (azgA, uapA, uapC deleted)
B2: PhZ (Phanerodontia chrysosporium; S133T) (protein)
chain: B1 chain with M124L, S133T
notes: as for B1
B3: PhZ (Phanerodontia chrysosporium; A418V) (protein)
chain: B1 chain with M124L, A418V
notes: as for B1
B4: PhZ (Phanerodontia chrysosporium) (protein)
chain: B1 chain with M124L
notes: as for B1
B5: PhZ (Phanerodontia chrysosporium; T392A) (protein)
chain: B1 chain with M124L, T392A
notes: as for B1

Legend:
[1] = target: T1, PhZ (Phanerodontia chrysosporium, UniProt A0A1B2TT73, L124M); experiment: competition with [3H]-hypoxanthine uptake in germinating A. nidulans conidia; assay type: cell-based; details: 0.2 uM [3H]-hypoxanthine, 37 °C
T1 construct: full length, 578 amino acids, from cDNA; C-terminal GFP fusion kept; expressed at the azgA locus of Aspergillus nidulans deltaZAC (azgA, uapA, uapC deleted)

[2] = target: T2, PhZ (Phanerodontia chrysosporium, UniProt A0A1B2TT73, A418V); experiment: as above; assay type: cell-based; details: 0.2 uM [3H]-hypoxanthine, 37 °C
T2 construct: full length, 578 amino acids, from cDNA; C-terminal GFP fusion kept; expressed at the azgA locus of Aspergillus nidulans deltaZAC (azgA, uapA, uapC deleted)

[3] = substrate: O=c1[nH]cnc2nc[nH]c12; experiment: inhibition of [3H]-hypoxanthine uptake by unlabelled hypoxanthine in germinating A. nidulans conidia; assay type: cell-based, Phanerodontia chrysosporium; details: 0.2 uM [3H]-hypoxanthine, 37 °C, minimal medium with nitrate, Km/i taken as equal to IC50 of unlabelled hypoxanthine
[4] = substrate: O=c1[nH]cnc2nc[nH]c12; experiment: as above; assay type: cell-based, Phanerodontia chrysosporium; details: 0.2 uM [3H]-hypoxanthine, 37 °C, minimal medium with nitrate, Km/i taken as equal to IC50 of unlabelled hypoxanthine; remark: listed apart in the source
From the text: inhibition of [3H]-hypoxanthine uptake by unlabelled hypoxanthine in germinating A. nidulans conidia on PhZ | (A) PhZwt; (B-E) L124M, S133T, T392A and A418V mutants respectively.

[5] = substrate: O=c1[nH]cnc2nc[nH]c12; experiment: as above; assay type: cell-based, Phanerodontia chrysosporium; details: 0.2 uM [3H]-hypoxanthine, 37 °C, minimal medium with nitrate, Km/i taken as equal to IC50 of unlabelled hypoxanthine; remark: listed apart in the source
From the text: inhibition of [3H]-hypoxanthine uptake by unlabelled hypoxanthine in germinating A. nidulans conidia on PhZ | Dose-response curves for hypoxanthine are shown.

T2 sequence (A0A1B2TT73 entry or part of it A418V): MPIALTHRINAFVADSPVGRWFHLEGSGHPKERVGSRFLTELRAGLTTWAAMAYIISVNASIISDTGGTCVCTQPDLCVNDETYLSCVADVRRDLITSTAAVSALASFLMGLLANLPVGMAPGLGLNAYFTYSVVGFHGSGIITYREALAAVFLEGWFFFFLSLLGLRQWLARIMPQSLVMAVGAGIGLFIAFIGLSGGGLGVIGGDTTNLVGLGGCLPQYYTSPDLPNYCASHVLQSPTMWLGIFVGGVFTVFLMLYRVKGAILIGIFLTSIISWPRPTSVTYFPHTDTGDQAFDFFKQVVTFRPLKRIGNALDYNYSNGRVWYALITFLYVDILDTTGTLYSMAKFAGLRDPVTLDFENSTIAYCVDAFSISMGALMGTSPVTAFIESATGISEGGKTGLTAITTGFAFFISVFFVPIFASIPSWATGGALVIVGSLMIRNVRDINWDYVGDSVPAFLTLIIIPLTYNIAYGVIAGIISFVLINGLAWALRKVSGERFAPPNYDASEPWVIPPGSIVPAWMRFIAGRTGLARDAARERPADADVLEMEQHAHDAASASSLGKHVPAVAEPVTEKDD

| Molecule | % of initial uptake velocity with 1 mM competitor [1] | % of initial uptake velocity with 1 mM competitor [2] | Km [4] [µM] | further results |
| --- | --- | --- | --- | --- |
| Nc1ncnc2[nH]cnc12 [adenine] | L124M and S133T, show less [^3H]-hypoxanthine inhibition regarding PhZwt with all purines | the T392A and A418V mutants exhibited higher levels of inhibition | – | – |
| Nc1nc2[nH]cnc2c(=O)[nH]1 [guanine] | L124M and S133T, show less [^3H]-hypoxanthine inhibition regarding PhZwt with all purines | the T392A and A418V mutants exhibited higher levels of inhibition | – | – |
| Nc1nc2[nH]nnc2c(=O)[nH]1 [8-azaguanine] | L124M and S133T, show less [^3H]-hypoxanthine inhibition regarding PhZwt with all purines | the T392A and A418V mutants exhibited higher levels of inhibition | – | – |
| B1 | – | – | – | Km [3]: 1.6 ± 0.3 µM |
| B2 | – | – | 2.1 ± 0.4 | – |
| B3 | – | – | 2.8 ± 0.4 | – |
| B4 | – | – | – | Km [5]: 2.7 ± 0.2 µM |
| B5 | – | – | 2.3 ± 0.3 | – |
